From ChEMBL document CHEMBL5034001 (J Med Chem, 2021)
The source made the active and inactive calls. The rule behind the calls is not given here.

Tests used:
[1] = test system: SR; assay: Antiproliferative activity against human SR cells assessed as inhibition of cell growth incubated for 72 hrs by CCK8 assay; type: functional, cell-based
[2] = biological target: T1, ALK tyrosine kinase receptor (Homo sapiens, UniProt Q9UM73); assay: Induction of ALK degradation in human SR cells assessed as protein stability at 50 ug/ml after 24 hrs; type: cell-based; conditions: dose 50.0 µg/ml
T1 sequence (Q9UM73 19-1620 limits assumed): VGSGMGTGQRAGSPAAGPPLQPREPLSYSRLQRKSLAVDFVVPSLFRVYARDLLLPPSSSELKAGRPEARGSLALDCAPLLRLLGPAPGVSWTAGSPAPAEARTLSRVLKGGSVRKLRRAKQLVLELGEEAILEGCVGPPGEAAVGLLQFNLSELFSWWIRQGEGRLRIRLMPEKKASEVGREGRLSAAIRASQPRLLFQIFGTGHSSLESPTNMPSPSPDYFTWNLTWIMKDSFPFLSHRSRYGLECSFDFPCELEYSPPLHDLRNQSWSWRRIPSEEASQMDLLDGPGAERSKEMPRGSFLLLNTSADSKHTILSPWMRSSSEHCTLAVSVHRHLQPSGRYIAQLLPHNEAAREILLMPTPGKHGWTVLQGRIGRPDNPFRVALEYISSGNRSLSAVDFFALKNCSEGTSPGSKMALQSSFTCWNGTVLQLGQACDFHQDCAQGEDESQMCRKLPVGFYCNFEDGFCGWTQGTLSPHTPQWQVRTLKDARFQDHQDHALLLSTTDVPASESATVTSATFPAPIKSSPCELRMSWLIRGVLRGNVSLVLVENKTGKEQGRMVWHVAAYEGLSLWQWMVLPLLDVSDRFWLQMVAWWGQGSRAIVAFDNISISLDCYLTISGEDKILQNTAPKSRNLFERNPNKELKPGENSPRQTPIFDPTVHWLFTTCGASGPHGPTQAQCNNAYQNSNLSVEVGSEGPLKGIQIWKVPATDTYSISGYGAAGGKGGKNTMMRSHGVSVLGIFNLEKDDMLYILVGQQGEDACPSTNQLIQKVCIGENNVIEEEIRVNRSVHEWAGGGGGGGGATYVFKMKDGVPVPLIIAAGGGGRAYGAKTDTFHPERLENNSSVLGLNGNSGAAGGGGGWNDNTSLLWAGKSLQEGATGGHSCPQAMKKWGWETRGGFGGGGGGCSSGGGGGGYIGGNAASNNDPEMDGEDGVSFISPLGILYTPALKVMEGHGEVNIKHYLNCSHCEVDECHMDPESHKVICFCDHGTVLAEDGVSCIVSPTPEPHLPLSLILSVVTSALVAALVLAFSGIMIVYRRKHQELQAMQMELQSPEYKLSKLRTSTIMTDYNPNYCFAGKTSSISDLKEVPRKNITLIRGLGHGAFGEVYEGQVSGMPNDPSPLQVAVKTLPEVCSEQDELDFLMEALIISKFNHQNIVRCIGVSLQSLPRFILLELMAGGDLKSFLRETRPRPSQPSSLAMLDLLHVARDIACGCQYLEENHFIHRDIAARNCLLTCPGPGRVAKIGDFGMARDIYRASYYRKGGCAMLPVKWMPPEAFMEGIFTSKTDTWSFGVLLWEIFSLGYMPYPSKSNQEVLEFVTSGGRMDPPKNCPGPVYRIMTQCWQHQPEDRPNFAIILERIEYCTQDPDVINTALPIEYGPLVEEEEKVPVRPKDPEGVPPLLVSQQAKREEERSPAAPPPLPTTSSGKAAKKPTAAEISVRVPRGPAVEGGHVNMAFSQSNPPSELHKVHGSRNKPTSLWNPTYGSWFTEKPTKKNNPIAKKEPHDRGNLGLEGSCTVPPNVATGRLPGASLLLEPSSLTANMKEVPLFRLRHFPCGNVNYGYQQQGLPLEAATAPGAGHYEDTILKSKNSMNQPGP

[3] = biological target: Focal adhesion kinase 1 (Homo sapiens) (UniProt Q05397); assay: Induction of FAK degradation in human MDA-MB-231 cells assessed as protein stability at 50 ug/ml after 8 hrs; type: cell-based; conditions: dose 50.0 µg/ml
Focal adhesion kinase 1 (Homo sapiens), sequence (Q05397 2-1052 limits assumed): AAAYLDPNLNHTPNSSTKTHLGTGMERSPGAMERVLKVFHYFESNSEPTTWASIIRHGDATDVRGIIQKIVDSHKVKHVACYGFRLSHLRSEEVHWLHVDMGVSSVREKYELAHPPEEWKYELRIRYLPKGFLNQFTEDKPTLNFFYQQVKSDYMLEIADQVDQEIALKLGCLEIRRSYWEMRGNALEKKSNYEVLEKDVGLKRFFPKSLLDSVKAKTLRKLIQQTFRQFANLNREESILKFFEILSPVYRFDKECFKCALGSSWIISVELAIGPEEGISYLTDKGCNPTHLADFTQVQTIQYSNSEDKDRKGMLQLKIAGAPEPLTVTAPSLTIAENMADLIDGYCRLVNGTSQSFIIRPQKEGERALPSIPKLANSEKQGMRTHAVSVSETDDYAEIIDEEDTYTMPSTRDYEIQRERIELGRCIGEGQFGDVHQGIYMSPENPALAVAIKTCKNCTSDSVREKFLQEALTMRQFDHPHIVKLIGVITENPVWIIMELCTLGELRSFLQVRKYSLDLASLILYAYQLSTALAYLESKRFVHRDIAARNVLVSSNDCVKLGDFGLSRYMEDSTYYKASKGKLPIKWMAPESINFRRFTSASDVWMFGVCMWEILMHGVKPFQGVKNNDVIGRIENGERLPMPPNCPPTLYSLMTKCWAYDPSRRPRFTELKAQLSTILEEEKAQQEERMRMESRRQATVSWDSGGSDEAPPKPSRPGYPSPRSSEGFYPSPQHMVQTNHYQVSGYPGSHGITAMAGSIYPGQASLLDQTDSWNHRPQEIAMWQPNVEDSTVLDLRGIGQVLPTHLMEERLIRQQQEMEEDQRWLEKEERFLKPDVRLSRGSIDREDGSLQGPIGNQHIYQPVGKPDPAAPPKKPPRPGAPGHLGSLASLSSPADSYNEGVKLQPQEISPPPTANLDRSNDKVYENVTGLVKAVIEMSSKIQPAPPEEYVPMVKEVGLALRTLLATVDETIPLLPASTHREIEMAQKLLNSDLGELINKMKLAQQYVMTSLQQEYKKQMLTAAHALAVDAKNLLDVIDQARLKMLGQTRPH

[4] = biological target: Protein-tyrosine kinase 2-beta (Homo sapiens) (UniProt Q14289); assay: Induction of PYK2 degradation in human MDA-MB-231 cells assessed as protein stability at 50 ug/ml after 8 hrs; type: cell-based; conditions: dose 50.0 µg/ml
Protein-tyrosine kinase 2-beta (Homo sapiens), sequence (Q14289 whole entry, looked up): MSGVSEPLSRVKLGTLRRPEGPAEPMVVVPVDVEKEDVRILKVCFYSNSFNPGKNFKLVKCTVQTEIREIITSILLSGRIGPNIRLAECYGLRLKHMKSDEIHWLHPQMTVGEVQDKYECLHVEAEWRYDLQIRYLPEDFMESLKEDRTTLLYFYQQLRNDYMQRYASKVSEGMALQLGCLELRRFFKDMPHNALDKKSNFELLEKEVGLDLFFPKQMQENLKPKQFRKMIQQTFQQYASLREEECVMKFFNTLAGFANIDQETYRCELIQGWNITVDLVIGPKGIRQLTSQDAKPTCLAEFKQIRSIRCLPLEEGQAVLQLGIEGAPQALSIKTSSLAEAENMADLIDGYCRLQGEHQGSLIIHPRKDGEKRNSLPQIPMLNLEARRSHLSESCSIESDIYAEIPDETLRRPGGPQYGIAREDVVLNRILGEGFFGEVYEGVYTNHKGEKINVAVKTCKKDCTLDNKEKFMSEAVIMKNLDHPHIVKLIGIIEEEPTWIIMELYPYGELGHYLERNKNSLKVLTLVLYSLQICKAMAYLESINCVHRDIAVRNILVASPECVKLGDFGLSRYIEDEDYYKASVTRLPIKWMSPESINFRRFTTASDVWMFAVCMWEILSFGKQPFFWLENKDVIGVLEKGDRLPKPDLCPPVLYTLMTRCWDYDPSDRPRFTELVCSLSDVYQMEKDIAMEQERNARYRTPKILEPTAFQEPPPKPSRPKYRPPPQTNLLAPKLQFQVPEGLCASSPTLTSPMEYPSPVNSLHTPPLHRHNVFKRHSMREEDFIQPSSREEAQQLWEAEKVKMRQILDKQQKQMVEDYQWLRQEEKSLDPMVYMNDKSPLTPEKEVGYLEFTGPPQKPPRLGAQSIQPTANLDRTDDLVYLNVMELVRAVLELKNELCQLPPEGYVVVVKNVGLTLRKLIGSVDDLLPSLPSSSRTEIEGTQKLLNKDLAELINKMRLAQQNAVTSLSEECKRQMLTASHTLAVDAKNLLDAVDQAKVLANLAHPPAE

[5] = test system: SR; assay: Antiproliferative activity against human SR cells assessed as inhibition of cell growth at 10 nM preincubated for 5 days followed by compound washout and measured on day 7 and 9 by CCK8 assay; type: functional, cell-based; conditions: time 5.0 day
[6] = biological target: Signal transducer and activator of transcription 3 (Homo sapiens) (UniProt P40763); assay: Inhibition of STAT3 downstream signalling in human SR cells assessed as reduction in pSTAT3 level at 10 nM by Western blot analysis; type: cell-based
Signal transducer and activator of transcription 3 (Homo sapiens), sequence (P40763 whole entry): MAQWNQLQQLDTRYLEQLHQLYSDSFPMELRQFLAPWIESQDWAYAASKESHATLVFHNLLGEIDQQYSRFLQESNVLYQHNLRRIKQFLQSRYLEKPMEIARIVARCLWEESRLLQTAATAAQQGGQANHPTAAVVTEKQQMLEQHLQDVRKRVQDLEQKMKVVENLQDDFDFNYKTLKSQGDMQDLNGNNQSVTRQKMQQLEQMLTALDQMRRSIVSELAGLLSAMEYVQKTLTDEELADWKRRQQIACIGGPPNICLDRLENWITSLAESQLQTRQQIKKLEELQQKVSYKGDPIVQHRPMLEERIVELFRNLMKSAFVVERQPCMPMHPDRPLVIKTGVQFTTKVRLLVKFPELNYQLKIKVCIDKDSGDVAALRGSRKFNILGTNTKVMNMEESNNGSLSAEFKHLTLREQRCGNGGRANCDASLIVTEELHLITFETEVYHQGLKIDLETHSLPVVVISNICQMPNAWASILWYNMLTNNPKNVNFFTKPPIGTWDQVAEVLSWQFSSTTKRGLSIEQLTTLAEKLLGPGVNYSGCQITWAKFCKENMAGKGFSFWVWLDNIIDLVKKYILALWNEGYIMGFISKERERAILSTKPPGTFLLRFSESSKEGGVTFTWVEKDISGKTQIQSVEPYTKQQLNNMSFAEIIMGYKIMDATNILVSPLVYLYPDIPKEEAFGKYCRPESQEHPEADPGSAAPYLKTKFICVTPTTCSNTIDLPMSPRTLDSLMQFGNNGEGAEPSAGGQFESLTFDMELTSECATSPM

[7] = biological target: Signal transducer and activator of transcription 3 (Homo sapiens) (UniProt P40763); assay: Inhibition of STAT3 downstream signalling in human NCI-H2228 cells assessed as reduction in pSTAT3 level at 1 to 1000 nM by Western blot analysis; type: cell-based; conditions: dose 1-1000 nM
[8] = test system: HEK-293T; assay: Antiproliferative activity against human 293T cells overexpressing ALK G1202R mutant assessed as cell growth inhibition after 72 hrs; type: functional, cell-based
[9] = test system: SR; assay: Induction of G1 cell cycle arrest in human SR cells at 100 nM after 24 to 48 hrs; type: functional, cell-based; conditions: time 24-48 hrs
[10] = test system: Calu-1; assay: Induction of G1 cell cycle arrest in human Calu-1 cells at 100 nM after 24 to 48 hrs; type: functional, cell-based; conditions: time 24-48 hrs
[11] = test system: MDA-MB-231; assay: Induction of G1 cell cycle arrest in human MDA-MB-231 cells at 100 nM after 24 to 48 hrs; type: functional, cell-based; conditions: time 24-48 hrs
[12] = test system: Calu-1; assay: Induction of apoptosis in human Calu-1 cells at 100 nM after 72 hrs; type: functional, cell-based
[13] = test system: MDA-MB-231; assay: Induction of apoptosis in human MDA-MB-231 cells at 100 nM after 72 hrs; type: functional, cell-based
[14] = test system: Calu-1; assay: Inhibition of cell migration in human Calu-1 cells at 100 nM after 12 to 24 hrs by wound healing assay; type: functional, cell-based; conditions: time lower […], time upper 24.0 hrs
[15] = test system: MDA-MB-231; assay: Inhibition of cell migration in human MDA-MB-231 cells at 100 nM after 48 hrs by wound healing assay; type: functional, cell-based
[16] = test system: MDA-MB-231; assay: Inhibition of cell migration in human MDA-MB-231 cells assessed as wound confluence ratio at 500 nM after 48 hrs by wound healing assay; type: functional
[17] = biological target: T1, ALK tyrosine kinase receptor; assay: Induction of ALK degradation in human SR cells at 500 nM after 16 hrs by Western blot analysis; type: cell-based

## COc1cc(N2CCC(N3CCN(C(=O)CCCCNc4cccc5c4C(=O)N(C4CCC(=O)NC4=O)C5=O)CC3)CC2)ccc1Nc1ncc(Cl)c(Nc2ccccc2P(C)(C)=O)n1 (stereo not drawn)
[1]
  IC50: 7.4 nM

## COc1cc(N2CCC(N3CCN(C(=O)CCCCCCNc4cccc5c4C(=O)N(C4CCC(=O)NC4=O)C5=O)CC3)CC2)ccc1Nc1ncc(Cl)c(Nc2ccccc2P(C)(C)=O)n1 (stereo not drawn)
[1]
  IC50: 4.8 nM

## COc1cc(N2CCC(N3CCN(C(=O)CCOCCOCCOCCNc4cccc5c4C(=O)N(C4CCC(=O)NC4=O)C5=O)CC3)CC2)ccc1Nc1ncc(Cl)c(Nc2ccccc2P(C)(C)=O)n1 (stereo not drawn)
[1]
  IC50: 5.3 nM

## COc1cc(N2CCC(N3CCN(C(=O)CCOCCNc4cccc5c4C(=O)N(C4CCC(=O)NC4=O)C5=O)CC3)CC2)ccc1Nc1ncc(Cl)c(Nc2ccccc2P(C)(C)=O)n1 (stereo not drawn)
[1]
  IC50: 3.8 nM

## COc1cc(N2CCC(N3CCN(C(=O)CCNc4cccc5c4C(=O)N(C4CCC(=O)NC4=O)C5=O)CC3)CC2)ccc1Nc1ncc(Cl)c(Nc2ccccc2P(C)(C)=O)n1 (stereo not drawn)
[1]
  IC50: 9.6 nM

## C[C@@H]1C[C@@H]([C@H](O)CC2CC(=O)NC(=O)C2)C(=O)[C@@H](C)C1
[2]
  Activity: Active
[3]
  Activity: Active
[4]
  Activity: Active

## COc1cc(N2CCC(N3CCN(C(=O)CCOCCOCCNc4cccc5c4C(=O)N(C4CCC(=O)NC4=O)C5=O)CC3)CC2)ccc1Nc1ncc(Cl)c(Nc2ccccc2P(C)(C)=O)n1 (stereo not drawn)
[1]
  IC50: 3.6 nM

## COc1cc(N2CCC(N3CCN(C(=O)CCCCCNc4cccc5c4C(=O)N(C4CCC(=O)NC4=O)C5=O)CC3)CC2)ccc1Nc1ncc(Cl)c(Nc2ccccc2P(C)(C)=O)n1 (stereo not drawn)
[1]
  IC50: 3.3 nM

## COc1cc(N2CCC(N3CCN(C(=O)CCOCCOCCOCCOCCOCCNc4cccc5c4C(=O)N(C4CCC(=O)NC4=O)C5=O)CC3)CC2)ccc1Nc1ncc(Cl)c(Nc2ccccc2P(C)(C)=O)n1 (stereo not drawn)
[1]
  IC50: 14 nM

## COc1cc(N2CCC(N3CCN(C(=O)CCCNc4cccc5c4C(=O)N(C4CCC(=O)NC4=O)C5=O)CC3)CC2)ccc1Nc1ncc(Cl)c(Nc2ccccc2P(C)(C)=O)n1 (stereo not drawn)
[1]
  IC50: 2.9 nM

## COc1cc(N2CCC(N3CCN(C)CC3)CC2)ccc1Nc1ncc(Cl)c(Nc2ccccc2P(C)(C)=O)n1 [BRIGATINIB]
[1]
  IC50: 3.3 nM
[5]
  Activity: inactive
[6]
  inhibition: Active
[7]
  inhibition: inactive
[8]
  IC50: 850 nM
[9]
  Activity: Active
[10]
  Activity: inactive
[11]
  Activity: inactive
[12]
  Activity: inactive
[13]
  Activity: inactive
[14]
  inhibition: inactive
[15]
  inhibition: inactive
[16]
  inhibition at 0.5 µM: 56%

## COc1cc(N2CCC(N3CCN(C(=O)CNc4cccc5c4C(=O)N(C4CCC(=O)N(C)C4=O)C5=O)CC3)CC2)ccc1Nc1ncc(Cl)c(Nc2ccccc2P(C)(C)=O)n1 (stereo not drawn)
[1]
  IC50: 16.3 nM
[17]
  Activity: Active

## COc1cc(N2CCC(N3CCN(C(=O)CCOCCOCCOCCOCCNc4cccc5c4C(=O)N(C4CCC(=O)NC4=O)C5=O)CC3)CC2)ccc1Nc1ncc(Cl)c(Nc2ccccc2P(C)(C)=O)n1 (stereo not drawn)
[1]
  IC50: 11.2 nM
